Data published in US20250066356A1, “LRRK2 INHIBITORS” (INTERLINE THERAPEUTICS, INC., priority 2022, published 2025).

What was measured:
[1] = biological target: T1, phosphorylation at Ser935 on wild type LRRK2 overexpressed in recombinant HEK-293T cells (Homo sapiens, UniProt Q5S007); experiment: pS935 LRRK2 Cell Assay (HTRF); format: cell-based; conditions: LRRK2 inhibition; pS935 LRRK2 in transfected HEK293T cells, 2 hours compound incubation
T1 construct: host or cells: HEK293T, transient transfection
Text: The following protocol describes an in-vitro method for measuring phosphorylation at Ser935 on wild type LRRK2 overexpressed in recombinant HEK-293T cells. The method is based on HTRF technology, which combines Fluorescence Resonance Energy Transfer (FRET) with Time-Resolved measurement (TR). Phospho-LRRK2 (Ser935) is detected in a sandwich assay format using two different specific antibodies, one labelled with Eu^3+-Cryptate (donor) and the second with d2 (acceptor). When the fluorophores are in close proximity, excitation of the donor with a light source (flash lamp) stimulates FRET to the acceptor, which in turn fluoresces at a specific wavelength (665 nm). The fluorescence emission at 615 nm from the donor is also measured to allow ratiometric reduction of data. The specific signal is proportional to phospho-LRRK2 (Ser935).
Plasmid transient transfection: DMEM medium, FBS, DPBS, Trans-IT, OPTI-MEM reagents were allowed to warm to room temperature. HEK293T cells were cultured in DMEM+10% FBS complete medium in T150 flasks till around 80% confluency before transfection. Then cells were washed with 10 mL PBS and detached with 3 mL 0.25% typinsin. 30×10E6 HEK293T cells were seeded in DMEM+10% FBS complete medium to a 15 cm dish.
DNA, TransIT-LT1, OPTI-MEM complex were prepared: […] OPTI-MEM was added to a 15 mL cone tube, then […] plasmid was added to OPTI-MEM and mixed, followed by addition of 60 L TransIT-LT1 to the plasmid OPTI-MEM mixture and mixing. The resulting mixture was incubated for 15 minutes.
The above plasmid, DNA and OPTI-MEM mixture was added dropwise to the 15 cm dish, ensuring the drops were evenly distributed. The culture dish was gently rocked back and forth and from left to right to evenly distribute the complex. The transfected dish was incubated for 24 hours at 37° C., and 5% CO2.
Transfected HEK293T was collected in the 15 cm dish. Media was aspirated from tissue culture dish, and washed by dispensing 10 mL 1×DPBS into 15 cm dish. 1×DPBS was aspirated and 3 mL trypsin was dispensed to 15 cm dish. The dish was incubated with trypsin at room temperature for 3 min until the cells were detached. 10 mL of DMEM+10% FBS medium were added to 15 cm dish and triturated to ensure homogenous cell suspensions.
Homogenous cell suspensions were transferred to a 50 mL tube, and centrifuged for 5 minutes at 1,000 rmp/min. The supernatant was aspirated and resuspended with 20 mL complete medium. 1 mL of cell suspension was transferred for cell counting. The cell suspension was diluted to 2×10E5 cells/ml. 50 L cell suspensions were added to a 384-well plate. The plate was quick spun at 800 rpm for 1 minute, then incubate overnight at 37° C., 5% CO2.
Compound dispensing: compound was diluted (10 mM DMSO stock solution) and added to assay plate (top concentration: 10 μM, 3 fold serial dilution, 9 doses) with duplicates by Tecan liquid handler. The DMSO concentration of each well was normalized to 0.2%. Plates were quick spun at 1,000 rpm for 1 minute. Plates were incubated at 37° C., 5% CO2 for 2 hours.
1× lysis buffer solution supplemented with blocking reagent was prepared (e.g. 1 mL lysis buffer 4×+3 mL water+40 L stock blocking reagent 100×). Antibodies working solution was prepared by diluting 40-fold d2 and Cryptate antibodies with detection buffer (e.g. 1520 L detection buffer+40 L d2-antibody stock solution+[…] Cryptate-antibody stock solution).
After 2 hours incubation, cell plates were taken out from the incubator. Medium was removed by plate washer, then 16 µL of supplemented lysis buffer was added 1× to each well and incubated for 30 minutes at room temperature under shaking (800 rpm/min). 4 µL of antibodies working solution was added to each well, covered with a top seal and incubated overnight in 23° C. incubator.
HTRF signal was read (665 nm and 615 nm) on Wallac 2104 EnVision® multilabel reader. Data were analyzed by XL fit software.

LRRK2 wild type enzyme = LRRK2 wild type enzyme (Homo sapiens, UniProt Q5S007); experiment: LRRK2 biochemical assay (LanthaScreen TR-FRET, LRRKtide substrate); conditions: LRRK2 inhibition; 3 nM LRRK2, 400 nM LRRKtide, 25 μM ATP, 120 min, 23° C.
Method: 10 mM compound solution was prepared in DMSO. An 11-point, 3-fold dilution was performed, with highest concentration at 10 μM. A 10 mM compound DMSO solution was added to Labcyte LDV plate and the compound concentration of source plate was 10 mM. The 1 st compound concentration of Inter plate (Labcyte 384 well PP plate) was 4.938×10^−1 mM which was prepared by transferring 1.5 μL of 10 mM compound from source plate to 28.9 μL DMSO. The 2nd compound concentration of Inter plate was 1.829×10^−2 mM which was prepared by transferring 60 nL of 10 mM compound from source plate to 32.7 μL DMSO. The 3rd compound concentration of Inter plate was 6.774×10^−4 mM which was prepared by transferring 2.5 nL of 10 mM compound from source plate to 36.9 μL DMSO. 100 nL of reference compound was dispensed in column 1 for low control wells and 100 nL of DMSO in column 24 for high control wells. Compounds were dispensed to column 2 to 23 of assay plate and backfilled with DMSO to a total volume of 100 nL.
A 2×LRRK2 enzyme solution (final concentration 3 nM) was prepared in assay buffer (Tris-HCl pH8.0: 50 mM, MgCl2: 5 mM, EDTA: 1 mM, Brij-35: 0.01%, 2 mM DTT). A 2× substrate solution was prepared: LRRK2 tide substrate (final concentration 400 nM) and ATP (final concentration 25 μM) in assay buffer. 5 μL 2×LRRK2 enzyme solution was dispensed to each well in assay plate by Multidrop. Assay plate was spun at 1,000 rpm for 1 min and incubated for 15 min at 23° C. 5 μL 2×ATP/LRRKtide solution was dispensed to each well in assay plate by Multidrop. Assay plate was spun at 1,000 rpm for 1 min and incubated for 120 min at 23° C.
A 2× detection solution was prepared: Tb-pERM (pLRRKtide) antibody (final concentration 0.25 nM) and EDTA (final concentration 10 mM) in TR-FRET dilution buffer. 10 μL 2× detection solution was dispensed to each well in assay plate to stop kinase reaction by Multidrop. Assay plate was spun at 1,000 rpm for 1 min and incubate for 30 min at 23° C. Assay plate was then read on Envision configured for LanthaScreen® TR-FRET.

Sequence of LRRK2 wild type enzyme (Q5S007 whole entry): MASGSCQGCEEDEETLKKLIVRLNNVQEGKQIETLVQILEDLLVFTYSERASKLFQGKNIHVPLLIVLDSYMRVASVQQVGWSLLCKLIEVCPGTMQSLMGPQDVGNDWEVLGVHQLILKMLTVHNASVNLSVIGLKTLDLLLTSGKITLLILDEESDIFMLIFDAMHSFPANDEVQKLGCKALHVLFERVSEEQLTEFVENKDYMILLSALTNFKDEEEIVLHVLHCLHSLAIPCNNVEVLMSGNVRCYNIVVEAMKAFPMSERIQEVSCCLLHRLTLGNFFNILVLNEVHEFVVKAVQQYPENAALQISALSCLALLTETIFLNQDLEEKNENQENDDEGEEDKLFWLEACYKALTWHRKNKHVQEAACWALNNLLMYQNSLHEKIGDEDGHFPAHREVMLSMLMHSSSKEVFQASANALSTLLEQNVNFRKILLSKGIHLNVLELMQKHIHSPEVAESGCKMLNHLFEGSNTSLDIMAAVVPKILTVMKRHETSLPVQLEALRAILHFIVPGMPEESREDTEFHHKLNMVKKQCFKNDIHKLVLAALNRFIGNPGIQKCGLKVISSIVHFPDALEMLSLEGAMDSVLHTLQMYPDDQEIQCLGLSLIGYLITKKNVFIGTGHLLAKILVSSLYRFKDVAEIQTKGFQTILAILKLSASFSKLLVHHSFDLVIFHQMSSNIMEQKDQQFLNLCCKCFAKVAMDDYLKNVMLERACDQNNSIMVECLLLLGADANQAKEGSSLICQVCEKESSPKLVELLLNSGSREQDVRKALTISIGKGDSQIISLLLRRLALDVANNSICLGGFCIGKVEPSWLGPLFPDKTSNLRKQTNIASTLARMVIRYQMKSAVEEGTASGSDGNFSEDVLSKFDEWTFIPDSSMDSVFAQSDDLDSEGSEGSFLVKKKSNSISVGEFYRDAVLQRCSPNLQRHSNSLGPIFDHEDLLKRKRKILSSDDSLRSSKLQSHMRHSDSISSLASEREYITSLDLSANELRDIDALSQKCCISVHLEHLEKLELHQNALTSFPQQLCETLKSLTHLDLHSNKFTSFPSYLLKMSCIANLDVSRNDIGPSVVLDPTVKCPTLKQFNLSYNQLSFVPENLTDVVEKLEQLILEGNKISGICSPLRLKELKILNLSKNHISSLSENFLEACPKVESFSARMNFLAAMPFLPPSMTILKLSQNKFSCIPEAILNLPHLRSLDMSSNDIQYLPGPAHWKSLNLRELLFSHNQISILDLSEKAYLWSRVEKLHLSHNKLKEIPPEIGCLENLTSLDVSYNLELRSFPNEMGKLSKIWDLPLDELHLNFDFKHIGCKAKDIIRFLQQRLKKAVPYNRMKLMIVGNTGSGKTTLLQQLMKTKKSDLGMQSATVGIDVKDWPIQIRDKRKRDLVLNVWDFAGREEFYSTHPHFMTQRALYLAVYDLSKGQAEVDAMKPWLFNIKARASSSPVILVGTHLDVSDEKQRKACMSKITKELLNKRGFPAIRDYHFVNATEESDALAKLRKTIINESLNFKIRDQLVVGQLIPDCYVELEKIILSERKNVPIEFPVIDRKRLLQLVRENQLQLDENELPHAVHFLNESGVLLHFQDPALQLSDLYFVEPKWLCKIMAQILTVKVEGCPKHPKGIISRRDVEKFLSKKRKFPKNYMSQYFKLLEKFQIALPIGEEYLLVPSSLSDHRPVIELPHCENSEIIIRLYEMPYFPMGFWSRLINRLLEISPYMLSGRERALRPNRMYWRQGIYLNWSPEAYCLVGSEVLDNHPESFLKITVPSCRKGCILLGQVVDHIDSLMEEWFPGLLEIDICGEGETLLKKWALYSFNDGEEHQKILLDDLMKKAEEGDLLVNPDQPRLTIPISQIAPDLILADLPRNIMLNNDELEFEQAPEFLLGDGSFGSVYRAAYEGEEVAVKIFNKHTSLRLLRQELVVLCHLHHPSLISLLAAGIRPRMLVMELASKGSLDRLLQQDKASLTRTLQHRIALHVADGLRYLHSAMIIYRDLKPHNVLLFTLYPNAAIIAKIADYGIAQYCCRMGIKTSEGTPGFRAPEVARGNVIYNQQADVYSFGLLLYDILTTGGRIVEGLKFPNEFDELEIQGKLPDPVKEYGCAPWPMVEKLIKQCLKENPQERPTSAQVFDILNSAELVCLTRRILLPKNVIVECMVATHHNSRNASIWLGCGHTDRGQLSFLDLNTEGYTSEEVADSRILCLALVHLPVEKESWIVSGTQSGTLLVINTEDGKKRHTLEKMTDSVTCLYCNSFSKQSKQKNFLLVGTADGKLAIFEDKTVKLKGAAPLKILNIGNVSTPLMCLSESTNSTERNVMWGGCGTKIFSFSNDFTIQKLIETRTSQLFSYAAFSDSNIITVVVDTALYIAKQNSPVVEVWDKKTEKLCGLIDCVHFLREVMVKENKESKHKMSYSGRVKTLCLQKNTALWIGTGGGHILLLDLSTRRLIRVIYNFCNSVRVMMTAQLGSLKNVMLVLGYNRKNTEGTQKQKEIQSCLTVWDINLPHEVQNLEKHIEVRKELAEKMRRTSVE
T1 sequence (Q5S007 whole entry): as above

C[C@@H]1C[C@H](n2c(Cc3noc(=O)[nH]3)nc3cnc4ccc(Cl)cc4c32)CCO1 [Compound 15, 3-({8-chloro-1-[(2R,4R)-2-methyloxan-4-yl]-1H-imidazo[4,5-c]quinolin-2-yl}methyl)-4,5-dihydro-1,2,4-oxadiazol-5-one]
IC50 [1]: > 10000 nM | IC50 (LRRK2 wild type enzyme): 3.23 nM

COC(=O)c1cccn(Cc2nc3cnc4ccc(C#N)cc4c3n2[C@@H]2CCO[C@H](C)C2)c1=O [Compound 19, methyl 1-({8-cyano-1-[(2R,4R)-2-methyloxan-4-yl]-1H-imidazo[4,5-c]quinolin-2-yl}methyl)-2-oxo-1,2-dihydropyridine-3-carboxylate]
IC50 [1]: 592 nM | IC50 (LRRK2 wild type enzyme): 8.03 nM

C[C@@H]1C[C@H](n2c(Cc3noc(N4CCC(O)C4)n3)nc3cnc4ccc(C#N)cc4c32)CCO1 (mixture of isomers) [Compound 12, 2-({5-[(3RS)-3-hydroxypyrrolidin-1-yl]-1,2,4-oxadiazol-3-yl}methyl)-1-[(2R,4R)-2-methyloxan-4-yl]-1H-imidazo[4,5-c]quinoline-8-carbonitrile]
IC50 [1]: 811 nM | IC50 (LRRK2 wild type enzyme): 1.36 nM

C[C@@H]1C[C@H](n2c(Cc3n[nH]c(=O)o3)nc3cnc4ccc(C#N)cc4c32)CCO1 [Compound 7, 1-[(2R,4R)-2-methyloxan-4-yl]-2-[(5-oxo-4,5-dihydro-1,3,4-oxadiazol-2-yl)methyl]-1H-imidazo[4,5-c]quinoline-8-carbonitrile]
IC50 [1]: 466 nM | IC50 (LRRK2 wild type enzyme): 1.49 nM

C[C@@H]1C[C@H](n2c(Cc3ccc(NS(C)(=O)=O)nc3)nc3cnc4ccc(C#N)cc4c32)CCO1 [Compound 6, N-(5-{[8-cyano-1-(2-methyloxan-4-yl)-1H-imidazo[4,5-c]quinolin-2-yl]methyl}pyridin-2-yl)methanesulfonamide]
IC50 [1]: 4380 nM | IC50 (LRRK2 wild type enzyme): 3.94 nM

C[C@@H]1C[C@H](n2c(Cc3noc(N4CCN(C)C(=O)C4)n3)nc3cnc4ccc(C#N)cc4c32)CCO1 [Compound 9, 2-{[5-(4-methyl-3-oxopiperazin-1-yl)-1,2,4-oxadiazol-3-yl]methyl}-1-[(2R,4R)-2-methyloxan-4-yl]-1H-imidazo[4,5-c]quinoline-8-carbonitrile]
IC50 [1]: 616 nM | IC50 (LRRK2 wild type enzyme): 1.69 nM
